{
  "source": "PubChem BioAssay (NCI)",
  "experiment_in_all_cases": "growth of human tumour cells (NCI), 48 h",
  "key": {"SN12C renal": {"system": "SN12C renal"}, "NCI-H460 lung": {"system": "NCI-H460 lung"}, "U251 CNS": {"system": "U251 CNS"}, "786-0 renal": {"system": "786-0 renal"}, "CCRF-CEM leukemia": {"system": "CCRF-CEM leukemia"}, "BT-549 breast": {"system": "BT-549 breast"}, "HS 578T breast": {"system": "HS 578T breast"}, "HCC-2998 colon": {"system": "HCC-2998 colon"}, "UACC-62 melanoma": {"system": "UACC-62 melanoma"}, "SF-539 CNS": {"system": "SF-539 CNS"}, "MALME-3M melanoma": {"system": "MALME-3M melanoma"}, "HCT-15 colon": {"system": "HCT-15 colon"}, "COLO 205 colon": {"system": "COLO 205 colon"}, "HCT-116 colon": {"system": "HCT-116 colon"}, "RPMI-8226 leukemia": {"system": "RPMI-8226 leukemia"}, "A549 NSCLC": {"system": "A549 NSCLC"}, "TK-10 renal": {"system": "TK-10 renal"}, "SK-MEL-2 melanoma": {"system": "SK-MEL-2 melanoma"}, "A498 renal": {"system": "A498 renal"}, "SNB-19 CNS": {"system": "SNB-19 CNS"}, "NCI/ADR-RES ovarian": {"system": "NCI/ADR-RES ovarian"}, "SK-MEL-28 melanoma": {"system": "SK-MEL-28 melanoma"}, "KM12 colon": {"system": "KM12 colon"}, "M14 melanoma": {"system": "M14 melanoma"}, "MDA-MB-231 breast": {"system": "MDA-MB-231 breast"}, "T-47D breast": {"system": "T-47D breast"}, "OVCAR-4 ovarian": {"system": "OVCAR-4 ovarian"}, "MDA-MB-435": {"system": "MDA-MB-435"}, "NCI-H522 lung": {"system": "NCI-H522 lung"}},
  "note": "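Where inhibition never reached the appropriate level, the endpoint shown equals the highest concentration tested. Otherwise, values were interpolated linearly from a five-concentration, 48-hour dose response in 96-well plates. GI50: concentration for 50% inhibition of growth. At the TGI there is no net growth.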",
  "data": [
    {"smiles": "COc1cc[nH]c1/C=C1\\C(=O)Nc2ccc(F)c(I)c21", "values": [
      {"measurement": "TGI", "setting": "SN12C renal", "result": "> 25", "unit": "µM"},
      {"measurement": "GI50", "setting": "NCI-H460 lung", "result": "> 25", "unit": "µM"},
      {"measurement": "TGI", "setting": "NCI-H460 lung", "result": "> 25", "unit": "µM"},
      {"measurement": "GI50", "setting": "U251 CNS", "result": "> 25", "unit": "µM"},
      {"measurement": "TGI", "setting": "U251 CNS", "result": "> 25", "unit": "µM"},
      {"measurement": "GI50", "setting": "786-0 renal", "result": "> 25", "unit": "µM"},
      {"measurement": "TGI", "setting": "786-0 renal", "result": "> 25", "unit": "µM"},
      {"measurement": "GI50", "setting": "CCRF-CEM leukemia", "result": "> 25", "unit": "µM"},
      {"measurement": "TGI", "setting": "CCRF-CEM leukemia", "result": "> 25", "unit": "µM"},
      {"measurement": "GI50", "setting": "BT-549 breast", "result": "> 25", "unit": "µM"},
      {"measurement": "TGI", "setting": "BT-549 breast", "result": "> 25", "unit": "µM"},
      {"measurement": "GI50", "setting": "HS 578T breast", "result": "> 25", "unit": "µM"},
      {"measurement": "TGI", "setting": "HS 578T breast", "result": "> 25", "unit": "µM"},
      {"measurement": "GI50", "setting": "HCC-2998 colon", "result": "> 25", "unit": "µM"},
      {"measurement": "TGI", "setting": "HCC-2998 colon", "result": "> 25", "unit": "µM"},
      {"measurement": "GI50", "setting": "UACC-62 melanoma", "result": "> 25", "unit": "µM"},
      {"measurement": "TGI", "setting": "UACC-62 melanoma", "result": "> 25", "unit": "µM"},
      {"measurement": "GI50", "setting": "SF-539 CNS", "result": "> 25", "unit": "µM"},
      {"measurement": "TGI", "setting": "SF-539 CNS", "result": "> 25", "unit": "µM"},
      {"measurement": "GI50", "setting": "MALME-3M melanoma", "result": "> 25", "unit": "µM"},
      {"measurement": "TGI", "setting": "MALME-3M melanoma", "result": "> 25", "unit": "µM"},
      {"measurement": "GI50", "setting": "HCT-15 colon", "result": "> 25", "unit": "µM"},
      {"measurement": "TGI", "setting": "HCT-15 colon", "result": "> 25", "unit": "µM"},
      {"measurement": "GI50", "setting": "COLO 205 colon", "result": "> 25", "unit": "µM"},
      {"measurement": "TGI", "setting": "COLO 205 colon", "result": "> 25", "unit": "µM"},
      {"measurement": "GI50", "setting": "HCT-116 colon", "result": "> 25", "unit": "µM"},
      {"measurement": "TGI", "setting": "HCT-116 colon", "result": "> 25", "unit": "µM"},
      {"measurement": "GI50", "setting": "RPMI-8226 leukemia", "result": "> 25", "unit": "µM"},
      {"measurement": "TGI", "setting": "RPMI-8226 leukemia", "result": "> 25", "unit": "µM"},
      {"measurement": "GI50", "setting": "A549 NSCLC", "result": "> 25", "unit": "µM"},
      {"measurement": "TGI", "setting": "A549 NSCLC", "result": "> 25", "unit": "µM"},
      {"measurement": "GI50", "setting": "TK-10 renal", "result": "> 25", "unit": "µM"},
      {"measurement": "TGI", "setting": "TK-10 renal", "result": "> 25", "unit": "µM"},
      {"measurement": "GI50", "setting": "SK-MEL-2 melanoma", "result": "> 25", "unit": "µM"},
      {"measurement": "TGI", "setting": "SK-MEL-2 melanoma", "result": "> 25", "unit": "µM"},
      {"measurement": "GI50", "setting": "A498 renal", "result": "> 25", "unit": "µM"},
      {"measurement": "TGI", "setting": "A498 renal", "result": "> 25", "unit": "µM"},
      {"measurement": "GI50", "setting": "SNB-19 CNS", "result": "> 25", "unit": "µM"},
      {"measurement": "TGI", "setting": "SNB-19 CNS", "result": "> 25", "unit": "µM"},
      {"measurement": "GI50", "setting": "NCI/ADR-RES ovarian", "result": "> 25", "unit": "µM"},
      {"measurement": "TGI", "setting": "NCI/ADR-RES ovarian", "result": "> 25", "unit": "µM"},
      {"measurement": "GI50", "setting": "SK-MEL-28 melanoma", "result": "> 25", "unit": "µM"},
      {"measurement": "TGI", "setting": "SK-MEL-28 melanoma", "result": "> 25", "unit": "µM"},
      {"measurement": "GI50", "setting": "KM12 colon", "result": 1.25, "unit": "µM"},
      {"measurement": "TGI", "setting": "KM12 colon", "result": "> 25", "unit": "µM"},
      {"measurement": "GI50", "setting": "M14 melanoma", "result": "> 25", "unit": "µM"},
      {"measurement": "TGI", "setting": "M14 melanoma", "result": "> 25", "unit": "µM"},
      {"measurement": "GI50", "setting": "MDA-MB-231 breast", "result": "> 25", "unit": "µM"},
      {"measurement": "TGI", "setting": "MDA-MB-231 breast", "result": "> 25", "unit": "µM"},
      {"measurement": "GI50", "setting": "T-47D breast", "result": "> 25", "unit": "µM"},
      {"measurement": "TGI", "setting": "T-47D breast", "result": "> 25", "unit": "µM"},
      {"measurement": "GI50", "setting": "OVCAR-4 ovarian", "result": "> 25", "unit": "µM"},
      {"measurement": "TGI", "setting": "OVCAR-4 ovarian", "result": "> 25", "unit": "µM"},
      {"measurement": "GI50", "setting": "MDA-MB-435", "result": "> 25", "unit": "µM"},
      {"measurement": "TGI", "setting": "MDA-MB-435", "result": "> 25", "unit": "µM"},
      {"measurement": "GI50", "setting": "NCI-H522 lung", "result": "> 25", "unit": "µM"},
      {"measurement": "TGI", "setting": "NCI-H522 lung", "result": "> 25", "unit": "µM"}
    ]}
  ]
}
